Assay results from US20250134825A1, “METHOD FOR PRODUCING MEDICATIONS AND VACCINES” (MSLsolutions GmbH, priority 2022, published 2025).
Each block holds one compound with its values, some of them ahead of it.

Columns and labels:
[1] = single substance, value given in the literature; cited from earlier work
[2] = Solubility in solvents (2,5-dimethylisosorbide, water, polyols); conditions: temperature range 55° C. to 70° C.
[3] = Stability of vitamin C (model substance for mRNA) in the carrier system; type: physicochemical; conditions: more than 15 wt. % vitamin C, with panthenol, composition of Table 16

SMILES: CCCCCCCCCCCCCCCCCC(=O)OC[C@H](COP(=O)([O-])OCC[N+](C)(C)C)OC(=O)CCCCCCCCCCCCCCCCC [DSPC, 1,2-distearoyl-sn-glycero-3-phosphocholine]
HLB [1]: 4.5

solubility in 2,5-dimethylisosorbide [2]: dissolved in high concentrations
SMILES: CC(C)CCC[C@@H](C)[C@H]1CC[C@H]2[C@@H]3CC=C4C[C@@H](O)CC[C@]4(C)[C@H]3CC[C@]12C [cholesterol]

SMILES: CC[C@H](/C=C/[C@@H](C)[C@H]1CC[C@H]2[C@@H]3CC=C4C[C@@H](O)CC[C@]4(C)[C@H]3CC[C@]12C)C(C)C [stigmasterol]
concentration completely dissolved in 2,5-dimethylisosorbide [2]: over 50%

stability in the composition or carrier system [3]: high stability
SMILES: O=C1O[C@H]([C@@H](O)CO)C(O)=C1O [vitamin C, ascorbic acid]
